Patent US5185366A, “Method for treatment and prevention of diseases caused by enveloped viruses, including herpes simplex virus types 1 and 2 diseases, using 3,4-dihydroxy-2H-benzopyran-2H-one” (Ohio State University Research Foundation, priority 1990, dated 1993)
Like-named read-outs stand apart in the source and are kept apart here.

Experiments:
[1] = tested on: VSV; assay: microbe, parasite or virus in culture; format: cell-based, Vesicular stomatitis virus
[2] = tested on: HSV-2; assay: Extracellular activity, inhibition of plaque forming units, HSV-2; conditions: for extracellular antiviral activity: HSV-2, 10 μM; for Plaque Forming Units Mean ± SD: extracellular
[3] = Inhibition of cell growth (microscopic cell count); format: cell-based, Buffalo green monkey; conditions: monkey, bgm-70 cells, read-out: % Reduction of cell growth
Description: a MASHII cell harvester and placed in a scintillation counter to determin
incorporation of labelled compound and level of toxicity. BGM 70 cells ar
seeded at a concentration of […] per well in a 24well tissue cultur
plate. Cells are planted in 2 mL of growth medium with or without the tes
compound and are incubated at 37° C. for 38 hours. At 24 hours
medium is removed from onehalf of the plates and the cells are fixed and
stained with crystal violet. The remaining cultures are fixed and stained
^b BGM 70 cells are counted microscopically and comparisons are made.
Experiments are performed blindly by assigning each compound concentratio
a letter code. The code is broken after the cells are counted.
The effect of the compounds on the inhibition of cell growth is determined using BGM-70 cells grown in vitro. For this assay, BGM 70 cells are seeded at a concentration of approximately 70 cells per well in 24-well tissue culture plates. Cells are planted in 2 ml of growth medium with or without the test compound and are incubated at 37° C. for 48 hours. At 24 hours, cells from one half of the plates are fixed and stained with crystal violet. The remaining cultures are fixed and stained at 48 hours. Cells are counted microscopically and comparisons are made between non-treated (control) and treated cells.

[4] = tested on: HSV-2; assay: Intracellular activity, inhibition of plaque forming units, HSV-2; format: cell-based, Herpes simplex virus type 2; conditions: for intracellular antiviral activity: HSV-2, 10 μM; for Plaque Forming Units Mean ± SD: intracellular
[5] = tested on: HSV-1; assay: Extracellular activity, inhibition of plaque forming units, HSV-1; conditions: for extracellular antiviral activity: HSV-1, 10 μM; for Plaque Forming Units Mean ± SD: extracellular
[6] = listed as 3,4-dihydroxy-2H-1-benzopyran-2-one

SMILES: O=c1oc2ccccc2c(O)c1O [Compound 5, 3,4-dihydroxy-2H-1-benzopyran-2-one]
- extracellular antiviral activity ([1]; VSV, n=2): no antiviral activity
- inhibition at 10 µM ([1]; Vesicular stomatitis virus, read-out: % Inhibition of Plaque Forming Units, Extracellularly): 0%
- extracellular antiviral activity [2]: shows both intra- and extra- cellular antiviral activity
- extracellular antiviral activity [2, 6]: exhibits both intracellular and extracellular activity
- inhibition at 10 µM ([2]; Human alphaherpesvirus 2, extracellular, HSV-2 + 1 × Cmpd (10 μM), relative viral conc 10): 64%
- inhibition at 10 µM ([2]; Human alphaherpesvirus 2, extracellular, HSV-2 + 1 × Cmpd (10 μM), relative viral conc 100): 77%
- inhibition at 20 µM ([2]; Human alphaherpesvirus 2, extracellular, HSV-2 + 2 × Cmpd (20 μM), relative viral conc 10): 96%
- inhibition at 20 µM ([2]; Human alphaherpesvirus 2, extracellular, HSV-2 + 2 × Cmpd (20 μM), relative viral conc 100): 95%
- inhibition at 10 µM ([2]; Human alphaherpesvirus 2, read-out: % Inhibition of PFU, EA (extracellular activity), HSV-2, 10.0 μmol/L): 81%
- inhibition at 10 µM ([2]; Human alphaherpesvirus 2, read-out: % Inhibition of Plaque Forming Units, Extracellularly, HSV-2, 10 μM (Table IV)): 81 ± 4%
- inhibition at 10 µM ([2]; Human alphaherpesvirus 2, read-out: reduction (PFU), extracellularly, HSV-2, 10 μM level, P<0.01): 76 to 98%
- inhibition, extracellular treatment of HSV-2 ([2]; comparison with clofibric acid, P<0.01): 63+/-4%
- Plaque Forming Units Mean ± SD ([2]; HSV-2 + 1 × Cmpd (10 μM), relative viral conc 10): 5.3 ± 1.5
- Plaque Forming Units Mean ± SD ([2]; HSV-2 + 1 × Cmpd (10 μM), relative viral conc 100): 49.3 ± 4.5
- Plaque Forming Units Mean ± SD ([2]; HSV-2 + 2 × Cmpd (20 μM), relative viral conc 10): 0.6 ± 0.6
- Plaque Forming Units Mean ± SD ([2]; HSV-2 + 2 × Cmpd (20 μM), relative viral conc 100): 9.7 ± 1.5
- inhibition at 24 h, 10 µM ([3]; 24 h, 10.0 μmol/L): 0%
- inhibition at 24 h, 50 µM ([3]; 24 h, 50.0 μmol/L): 5.9 ± 0.5%
- inhibition at 24 h, 100 µM ([3]; 24 h, 100.0 μmol/L): 47.8 ± 9%
- inhibition at 48 h, 10 µM ([3]; 48 h, 10.0 μmol/L): 0.4%
- inhibition at 48 h, 50 µM ([3]; 48 h, 50.0 μmol/L): 8.7 ± 2.8%
- inhibition at 48 h, 100 µM ([3]; 48 h, 100.0 μmol/L): 54.1 ± 3.2%
- intracellular antiviral activity [4]: shows both intra- and extra- cellular antiviral activity
- intracellular antiviral activity [4, 6]: exhibits both intracellular and extracellular activity
- inhibition at 10 µM ([4]; Human alphaherpesvirus 2, 10 μM, one experiment, n=3 wells, P<0.07, read-out: inhibition (PFU), virus-infected cells): 26 ± 4%
- inhibition at 10 µM ([4]; Human alphaherpesvirus 2, HSV-2, 10 μM (Table IV), read-out: % Inhibition of Plaque Forming Units, Intracellularly): 36 ± 4.7%
- inhibition at 10 µM ([4]; Human alphaherpesvirus 2, HSV-2, 10 μM, P<0.01, read-out: inhibition (PFU), intracellularly): 25 to 39%
- inhibition at 10 µM ([4]; Human alphaherpesvirus 2, HSV-2, 10.0 μmol/L, read-out: % Inhibition of PFU, IA (intracellular activity)): 36%
- inhibition at 10 µM ([4]; Human alphaherpesvirus 2, intracellular, HSV-2: 1 × Cmpd (10 μM), relative viral conc 10, read-out: % Inhibition): 33%
- inhibition at 10 µM ([4]; Human alphaherpesvirus 2, intracellular, HSV-2: 1 × Cmpd (10 μM), relative viral conc 100, read-out: % Inhibition): 39%
- anti-HSV-2 properties ([4]; at noncytotoxic concentrations): exhibited anti-HSV-2 properties at noncytotoxic concentrations
- Plaque Forming Units Mean ± SD ([4]; HSV-2: 1 × Cmpd (10 μM), relative viral conc 10): 14.3 ± 1.1
- Plaque Forming Units Mean ± SD ([4]; HSV-2: 1 × Cmpd (10 μM), relative viral conc 100): 153.6 ± 7.4
- extracellular antiviral activity [5]: shows both intra- and extra- cellular antiviral activity
- extracellular antiviral activity [5, 6]: exhibits both intracellular and extracellular activity
- inhibition at 10 µM ([5]; Human alphaherpesvirus 1, extracellular, HSV-1 + 1 × Cmpd (10 μM), relative viral conc 10): 82%
- inhibition at 10 µM ([5]; Human alphaherpesvirus 1, extracellular, HSV-1 + 1 × Cmpd (10 μM), relative viral conc 100): 76%
- inhibition at 20 µM ([5]; Human alphaherpesvirus 1, extracellular, HSV-1 + 2 × Cmpd (20 μM), relative viral conc 10): 98%
- inhibition at 20 µM ([5]; Human alphaherpesvirus 1, extracellular, HSV-1 + 2 × Cmpd (20 μM), relative viral conc 100): 95%
- inhibition at 10 µM ([5]; Human alphaherpesvirus 1, read-out: % Inhibition of Plaque Forming Units, Extracellularly, HSV-1, 10 μM): 76.4 ± 2.2%
- inhibition at 10 µM ([5]; Human alphaherpesvirus 1, read-out: reduction (PFU), extracellularly, HSV-1, 10 μM level, P<0.01): 76 to 98%
- Plaque Forming Units Mean ± SD ([5]; HSV-1 + 1 × Cmpd (10 μM), relative viral conc 10): 2.6 ± 1.6
- Plaque Forming Units Mean ± SD ([5]; HSV-1 + 1 × Cmpd (10 μM), relative viral conc 100): 40.6 ± 3.8
- Plaque Forming Units Mean ± SD ([5]; HSV-1 + 2 × Cmpd (20 μM), relative viral conc 10): 0.3 ± 0.5
